We go through 8 molecules from patent US20260232682A1, “GSPT1 DEGRADER COMPOUNDS” (Captor Therapeutics S.A., priority 2023, published 2026).

SMILES strings stand for the structures.

Assay [1] has as its target [GSPT1]-[compound of formula (I)]-[CRBN/DDB1] complex (Homo sapiens, UniProt P15170+Q96SW2). Put plainly: HTRF ternary complex assay (GSPT1). The following applies: read-out: HTRF ternary complex Average pEC50 by molecule (converted). The assay is classed as binding. In outline: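 Compounds in dose-response were incubated 180 min at 25 °C with 48 nM GSPT1 and 52.8 nM 6×His-CRBN/DDB1, plus Streptavidin-Eu cryptate and anti-6×His-d2, in buffer with 1 mM DTT and 0.5% DMSO. TR-FRET (665/620) was normalized to DMSO background and fitted with a Hill slope model for EC50/pEC50.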
For orientation: Time-resolved FRET reads energy transfer from a long-lived donor to a nearby acceptor.

The target in assay [2] is T1, GSPT1-HiBiT protein in GSPT1-HiBiT HEK293 cells (Homo sapiens, UniProt P15170+Q96SW2).
T1 construct: endogenous in cells; host or cells: HEK293 (CRISPR/Cas9 knock-in of HiBiT at the GSPT1 locus)
T1 sequence (P15170 whole entry): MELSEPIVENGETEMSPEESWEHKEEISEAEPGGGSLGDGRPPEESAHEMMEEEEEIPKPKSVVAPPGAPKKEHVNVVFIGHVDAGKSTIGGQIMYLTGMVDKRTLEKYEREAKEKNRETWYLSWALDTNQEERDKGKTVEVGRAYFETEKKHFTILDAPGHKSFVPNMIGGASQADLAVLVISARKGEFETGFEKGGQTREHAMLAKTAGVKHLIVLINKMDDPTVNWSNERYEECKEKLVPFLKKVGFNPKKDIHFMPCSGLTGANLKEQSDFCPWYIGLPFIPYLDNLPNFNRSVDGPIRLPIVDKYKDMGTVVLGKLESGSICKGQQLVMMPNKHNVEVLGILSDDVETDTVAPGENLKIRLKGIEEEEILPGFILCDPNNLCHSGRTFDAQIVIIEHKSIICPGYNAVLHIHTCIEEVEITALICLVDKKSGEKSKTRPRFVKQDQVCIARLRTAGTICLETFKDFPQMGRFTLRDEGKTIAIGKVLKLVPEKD
T1 sequence (Q96SW2 whole entry): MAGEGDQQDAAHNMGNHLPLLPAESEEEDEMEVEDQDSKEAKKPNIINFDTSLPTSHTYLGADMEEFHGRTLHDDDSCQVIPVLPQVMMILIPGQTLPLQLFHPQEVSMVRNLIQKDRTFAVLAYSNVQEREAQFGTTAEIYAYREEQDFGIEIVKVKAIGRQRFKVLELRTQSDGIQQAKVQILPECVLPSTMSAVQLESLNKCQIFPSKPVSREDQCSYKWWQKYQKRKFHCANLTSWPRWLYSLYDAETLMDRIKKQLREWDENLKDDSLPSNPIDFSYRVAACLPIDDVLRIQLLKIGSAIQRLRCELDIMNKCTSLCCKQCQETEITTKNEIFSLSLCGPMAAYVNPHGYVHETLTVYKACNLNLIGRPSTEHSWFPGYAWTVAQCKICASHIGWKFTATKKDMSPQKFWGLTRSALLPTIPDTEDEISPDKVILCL
T1 sequence (Q16531 whole entry partner): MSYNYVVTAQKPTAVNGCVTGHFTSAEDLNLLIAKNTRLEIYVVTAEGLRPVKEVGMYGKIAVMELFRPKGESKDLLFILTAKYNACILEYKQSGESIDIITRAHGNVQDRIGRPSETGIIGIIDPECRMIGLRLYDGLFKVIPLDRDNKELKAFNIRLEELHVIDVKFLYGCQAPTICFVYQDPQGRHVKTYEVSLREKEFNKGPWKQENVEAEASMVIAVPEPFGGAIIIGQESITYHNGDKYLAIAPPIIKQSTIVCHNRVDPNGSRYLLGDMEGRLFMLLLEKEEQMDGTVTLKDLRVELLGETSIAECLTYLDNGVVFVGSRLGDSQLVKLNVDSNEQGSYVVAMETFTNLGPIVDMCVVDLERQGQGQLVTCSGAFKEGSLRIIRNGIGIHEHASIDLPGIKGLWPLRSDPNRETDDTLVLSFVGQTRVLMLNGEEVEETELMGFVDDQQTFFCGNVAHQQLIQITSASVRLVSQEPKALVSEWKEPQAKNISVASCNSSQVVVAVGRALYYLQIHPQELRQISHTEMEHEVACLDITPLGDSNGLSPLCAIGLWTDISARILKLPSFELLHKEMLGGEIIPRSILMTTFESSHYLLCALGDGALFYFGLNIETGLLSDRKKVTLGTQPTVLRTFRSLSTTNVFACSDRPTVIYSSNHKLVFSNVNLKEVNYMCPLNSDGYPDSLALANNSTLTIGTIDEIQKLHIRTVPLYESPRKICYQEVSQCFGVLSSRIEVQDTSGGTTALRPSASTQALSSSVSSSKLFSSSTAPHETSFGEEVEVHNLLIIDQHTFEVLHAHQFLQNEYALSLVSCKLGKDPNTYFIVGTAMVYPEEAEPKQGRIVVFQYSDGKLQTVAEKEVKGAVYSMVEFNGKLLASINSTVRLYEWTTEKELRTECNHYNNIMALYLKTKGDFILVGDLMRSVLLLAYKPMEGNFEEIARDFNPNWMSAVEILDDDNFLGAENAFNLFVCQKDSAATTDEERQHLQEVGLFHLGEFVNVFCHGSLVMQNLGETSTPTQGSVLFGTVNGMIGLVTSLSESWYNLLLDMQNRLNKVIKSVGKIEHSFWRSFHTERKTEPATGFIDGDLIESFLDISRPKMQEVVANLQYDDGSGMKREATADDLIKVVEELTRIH
As to the kind of experiment: GSPT1 degradation assay using HiBiT system (Nano-Glo HiBiT lytic assay). The assay is classed as cell-based. The following applies: 6 hours treatment; for DC50: read-out: HiBiT lytic assay Geomean absolute DC50. The source says: The effect of selected compounds of the invention on GSPT1 protein levels was investigated, using the GSPT1-HiBiT HEK293 cell line and the Nano-Glo HiBiT degradation assay protocol below.
GSPT1-HiBiT HEK293 cells were generated in-house using the HEK293 parental cells (ATCC, cat. no 70016364) and the CRISPR/Cas9 system. HEK293 cells were transformed with pSpCas9-BB-2A-Puro v2.0 plasmid carrying gRNA targeting the C-terminus of GSPT1 and ssODN template containing the HiBiT tag sequence with flanking homology sequences. Neon Transfection System (Thermo Fisher Scientific) was used for electroporation. HEK293 GSPT1-HiBiT cells were cultured with DMEM Glutamax (Gibco) supplemented with 10% heat inactivated FBS (Gibco). After transfection the culture medium was changed to DMEM Glutamax with 10% heat-inactivated FBS and 1% Penicillin-Streptomycin (Biowest) supplemented with Puromycin (2 μg/ml; Invivogen) for clonal selection. In order to isolate single cell clones for further validation and analysis, limiting dilution cloning in 96-well plates was performed. When the single clones reached confluency, HiBiT Lytic Assay (Promega) was performed in order to identify HiBiT positive clones. The clone selected for further studies was verified and validated using genotyping and HiBiT Blotting (Promega).
Cells were maintained in DMEM Glutamax medium, supplemented with 1% penicillin/streptomycin and 10% Fetal Bovine Serum (FBS) at 37° C., 5% CO2. Compounds were stored frozen as 20 mM DMSO stocks.
For the Nano-Glo HiBiT assay, cells were seeded onto 384-well white solid bottom plate at 2×10^3 cells/well in 40 μL using the Agilent BioTek MultiFlo FX Multimode Dispenser and incubated overnight. Following overnight incubation (37° C., 5% CO2) cells were treated with the test compounds and vehicle only (DMSO) control using the Echo 555 Liquid Handler. Twelve data-point compound titration curve with concentrations ranging from 10 μM to 0.03 nM was used. Final DMSO concentration was kept constant at 0.25% v/v across the assay plate. After 6 hours of incubation (37° C., 5% CO2), plates were removed from the incubator and let to equilibrate to RT. Luminescent signal detection was conducted using the Nano-Glo HiBiT Lytic Detection System (Promega, cat. nr N3050). Nano-Glo HiBiT Lytic Reagent was prepared freshly by diluting the LgBiT Protein (1:100 vol/vol) and the Nano-Glo HiBiT Lytic Substrate (1:50 vol/vol) in the relevant volume of the Nano-Glo HiBiT Lytic Buffer. 40 μL of the HiBiT Lytic Reagent was added per well, plates were shaken to facilitate lysis (350 rpm, 5 min, RT) and incubated in the dark for the following 10 min. Luminescence was read using the PHERAstar multimode plate reader (BMG LABTECH). The raw data (the relative luminescence unit values, RLU) were uploaded under the relevant protocol and analysed in CDDVault data management platform. Luminescence (RLU) values were normalized to the controls, and reported absolute DC50 values and Dmax values were calculated in CDDVault using non-linear regression and appropriate equations.

The subject of the next assay is GSPT1-HiBiT HEK293 cells. As to the kind of experiment: Cell Viability-CTG assay accompanying the Nano-Glo HiBiT assay. Format: cell-based. To be noted: 6 hours treatment, viability of GSPT1-HiBiT HEK293 cells. The protocol:
In parallel, the Cell Viability-CTG assay was performed to ensure that the potential decrease of the luminescent signal observed in the Nano-Glo HiBiT assay is a result of protein degradation and not a result of decreasing cell viability. For CTG assay accompanying the Nano-Glo HiBiT assay, cells were cultured, seeded and treated as described above. After 6 hours of incubation (37° C., 5% CO2), plates were removed from the incubator and let to equilibrate to RT. Luminescent signal detection was conducted using the CellTiter-Glo Lumiescent Cell Viability Assay (Promega, cat. nr G7573). 10 μL of the Cell Titer Glo reagent was added per well, plates were shaken to facilitate lysis (460 rpm, 4 min, RT) and incubated in the dark for the following 8 min. Luminescence was read using the CLARIOstar multimode plate reader (BMG LABTECH). The raw data (the relative luminescence unit values, RLU) were uploaded under the relevant protocol and analysed in CDDVault data management platform, in a manner similar to the description above. The Mean Minimum values were calculated in CDDVault using non-linear regression and appropriate equations.
(HiBiT is a short tag that completes a luciferase, so light tracks the accessible tagged protein.)

Chain of [GSPT1]-[compound of formula (I)]-[CRBN/DDB1] complex (P15170 whole entry): as the sequence (P15170 whole entry) above
Chain of [GSPT1]-[compound of formula (I)]-[CRBN/DDB1] complex (Q96SW2 whole entry): as the sequence (Q96SW2 whole entry) above
Chain of [GSPT1]-[compound of formula (I)]-[CRBN/DDB1] complex (Q16531 whole entry partner): as the sequence (Q16531 whole entry partner) above

The Dmax is the greatest extent of degradation seen. High values mean a fuller loss of target, low ones a partial loss of target. For orientation: DC50 means the concentration giving 50% degradation. As for `Cc1nc2cc(COC(=O)Nc3cccc(-c4ccccc4)c3)ccc2cc1C1CCC(=O)NC1=O` (centres unmarked) [Compound 46, (3-(2,6-dioxopiperidin-3-yl)-2-methylquinolin-7-yl)methyl [1,1′-biphenyl]-3-ylcarbamate], the EC50 in assay [1] was 316 to 3160 nM. In assay [2], the Dmax is ≥ 75% and the half-maximal degradation concentration (DC50) was 10 to 50 nM. In addition, the “CTG assay Mean minimum” value with GSPT1-HiBiT HEK293 cells was “++++ (++++≥75% of viability of the HiBiT-GSPT1 HEK293 cells)”.
The matching figures for `Cc1ccc(NC(=O)OCc2cc3nc(C)c(C4CCC(=O)NC4=O)cc3cc2F)cc1Cl` (centres unmarked) [Compound 49, (3-(2,6-dioxopiperidin-3-yl)-6-fluoro-2-methylquinolin-7-yl)methyl (3-chloro-4-methylphenyl)carbamate]: 316 to 3160 nM, ≥ 75%, 50 to 100 nM and “++++ (++++≥75% of viability of the HiBiT-GSPT1 HEK293 cells)”.
As to `Cc1ccc(NC(=O)OCc2ccc3cc(C4CCC(=O)NC4=O)c(C)nc3c2F)cc1Cl` (centres unmarked) [Compound 50, (3-(2,6-dioxopiperidin-3-yl)-8-fluoro-2-methylquinolin-7-yl)methyl (3-chloro-4-methylphenyl)carbamate], the EC50 in assay [1] was 316 to 3160 nM. In assay [2], the Dmax was ≥ 75% and the DC50 is 10 to 50 nM. The “CTG assay Mean minimum” value in the assay on GSPT1-HiBiT HEK293 cells is reported as “++++ (++++≥75% of viability of the HiBiT-GSPT1 HEK293 cells)”.
For `Cc1ccc(NC(=O)NCc2ccc3nc(C)c(N4CCC(=O)NC4=O)cc3c2)cc1Cl` [Compound 51, 1-(3-chloro-4-methylphenyl)-3-((3-(2,4-dioxotetrahydropyrimidin-1(2H)-yl)-2-methylquinolin-6-yl)methyl)urea], the EC50 in assay [1] was < 316 nM. In assay [2], the Dmax was ≥ 75% and the DC50 lay within 10 to 50 nM. Also, the “CTG assay Mean minimum” value with GSPT1-HiBiT HEK293 cells was “++++ (++++≥75% of viability of the HiBiT-GSPT1 HEK293 cells)”.
Taken in the same sequence, the figures for `Cc1ccc(NC(=O)OCc2ccc3cc(C4CCC(=O)NC4=O)c(C)nc3c2)c(Cl)c1Cl` (centres unmarked) [Compound 54, (3-(2,6-dioxopiperidin-3-yl)-2-methylquinolin-7-yl)methyl (2,3-dichloro-4-methylphenyl)carbamate] were 316 to 3160 nM, ≥ 75%, 10 to 50 nM and “++++ (++++≥75% of viability of the HiBiT-GSPT1 HEK293 cells)”.
The matching figures for `Cc1nc2cc(COC(=O)NC3CCC(C(C)(C)C)CC3)ccc2cc1C1CCC(=O)NC1=O` (centres unmarked) [Compound 55, (3-(2,6-dioxopiperidin-3-yl)-2-methylquinolin-7-yl)methyl (4-(tert-butyl)cyclohexyl)carbamate]: 316 to 3160 nM, ≥ 75%, 10 to 50 nM and “++++ (++++≥75% of viability of the HiBiT-GSPT1 HEK293 cells)”.
Taken in the same sequence, the figures for `Cc1ncc(NC(=O)OCc2ccc3cc(C4CCC(=O)NC4=O)c(C)nc3c2)cc1Cl` (centres unmarked) [Compound 58, (3-(2,6-dioxopiperidin-3-yl)-2-methylquinolin-7-yl)methyl (5-chloro-6-methylpyridin-3-yl)carbamate] were 316 to 3160 nM, ≥ 75%, < 10 nM and “++++ (++++≥75% of viability of the HiBiT-GSPT1 HEK293 cells)”.
In the case of `COc1cnc(NC(=O)OCc2ccc3cc(C4CCC(=O)NC4=O)c(C)nc3c2)cn1` (centres unmarked) [Compound 59, (3-(2,6-dioxopiperidin-3-yl)-2-methylquinolin-7-yl)methyl (5-methoxypyrazin-2-yl)carbamate], the EC50 in assay [1] is < 316 nM. For the same molecule, in assay [2], the Dmax is ≥ 75% and the DC50 is 10 to 50 nM. Besides, the “CTG assay Mean minimum” value in the assay on GSPT1-HiBiT HEK293 cells was “++++ (++++≥75% of viability of the HiBiT-GSPT1 HEK293 cells)”.
